Assay results taken from PubChem BioAssay (NCI).
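In this assay, cells in 96-well plates receive the compound at five concentrations for 48 hours. Endpoints are linearly interpolated between the surrounding concentrations. TGI is the concentration that stops growth completely.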

How the values were obtained:
Experiment in all cases: growth of human tumour cells (NCI), 48 h
[1] = system: HCT-15 colon
[2] = system: KM12 colon
[3] = system: ACHN renal
[4] = system: HCC-2998 colon
[5] = system: 786-0 renal
[6] = system: NCI-H23 lung
[7] = system: BT-549 breast
[8] = system: SK-MEL-5 melanoma
[9] = system: MCF7 breast
[10] = system: DU-145 prostate
[11] = system: NCI-H522 lung
[12] = system: NCI-H460 lung
[13] = system: MALME-3M melanoma
[14] = system: EKVX NSCLC
[15] = system: OVCAR-5 ovarian
[16] = system: OVCAR-3 ovarian
[17] = system: RXF 393 renal
[18] = system: A549 NSCLC
[19] = system: NCI-H226 lung
[20] = system: RPMI-8226 leukemia
[21] = system: OVCAR-8 ovarian
[22] = system: HS 578T breast
[23] = system: CCRF-CEM leukemia
[24] = system: LOX IMVI melanoma
[25] = system: HOP-62 NSCLC
[26] = system: NCI/ADR-RES ovarian
[27] = system: SN12C renal
[28] = system: CAKI-1 renal
[29] = system: MDA-MB-435
[30] = system: U251 CNS
[31] = system: UACC-62 melanoma
[32] = system: MDA-MB-231 breast
[33] = system: SF-268 CNS
[34] = system: HCT-116 colon
[35] = system: TK-10 renal
[36] = system: T-47D breast
[37] = system: A498 renal
[38] = system: SNB-75 CNS
[39] = system: PC-3 prostate
[40] = system: UACC-257 melanoma
[41] = system: M14 melanoma
[42] = system: MDA-N
[43] = system: UO-31 renal
[44] = system: SF-295 CNS
[45] = system: COLO 205 colon
[46] = system: SW-620 colon
[47] = system: SF-539 CNS
[48] = system: HT29 colon
[49] = system: SK-MEL-28 melanoma
[50] = system: OVCAR-4 ovarian
[51] = system: SK-OV-3 ovarian
[52] = system: IGROV1 ovarian
[53] = system: HL-60(TB) leukemia
[54] = system: K-562 leukemia
[55] = system: SNB-19 CNS
[56] = system: HOP-92 NSCLC
[57] = system: SR leukemia
[58] = system: MOLT-4 leukemia
[59] = system: SK-MEL-2 melanoma

COc1ccc(C2CC3(c4ccccc4)ON=C(c4ccccc4)N3c3ccccc3S2)cc1 (stereo not given)
TGI [1]: > 100 µM | TGI [2]: > 100 µM | TGI [3]: > 100 µM | TGI [4]: > 100 µM | TGI [5]: > 100 µM | TGI [6]: > 100 µM | TGI [7]: > 100 µM | TGI [8]: > 100 µM | TGI [9]: > 100 µM | TGI [10]: > 100 µM | TGI [11]: > 100 µM | TGI [12]: > 100 µM | TGI [13]: > 100 µM | TGI [14]: > 100 µM | TGI [15]: > 100 µM | TGI [16]: > 100 µM | TGI [17]: > 100 µM | TGI [18]: > 100 µM | TGI [19]: > 100 µM | TGI [20]: > 100 µM | TGI [21]: > 100 µM | TGI [22]: > 100 µM | TGI [23]: > 100 µM | TGI [24]: > 100 µM | TGI [25]: > 100 µM | TGI [26]: > 100 µM | TGI [27]: > 100 µM | TGI [28]: > 100 µM | TGI [29]: > 100 µM | TGI [30]: > 100 µM | TGI [31]: > 100 µM | TGI [32]: > 100 µM | TGI [33]: > 100 µM | TGI [34]: > 100 µM | TGI [35]: > 100 µM | TGI [36]: > 100 µM | TGI [37]: > 100 µM | TGI [38]: > 100 µM | TGI [39]: > 100 µM | TGI [40]: > 100 µM | TGI [41]: > 100 µM | TGI [42]: > 100 µM | TGI [43]: > 100 µM | TGI [44]: > 100 µM | TGI [45]: > 100 µM | TGI [46]: > 100 µM | TGI [47]: > 100 µM | TGI [48]: > 100 µM | TGI [49]: > 100 µM | TGI [50]: > 100 µM | TGI [51]: > 100 µM | TGI [52]: > 100 µM

CSc1ccc(/C=C2\N=C(c3ccccc3)N(c3nc4cc(C)c(C)cc4s3)C2=O)cc1
TGI [1]: > 100 µM | TGI [2]: > 100 µM | TGI [3]: 58.6 µM | TGI [4]: 82.4 µM | TGI [5]: 61.6 µM | TGI [7]: 98.1 µM | TGI [8]: 84.5 µM | TGI [9]: 37.2 µM | TGI [10]: > 100 µM | TGI [12]: > 100 µM | TGI [53]: 86.3 µM | TGI [54]: > 100 µM | TGI [14]: 85.9 µM | TGI [15]: 67.9 µM | TGI [16]: 77.4 µM | TGI [17]: 62.3 µM | TGI [18]: 89.7 µM | TGI [20]: > 100 µM | TGI [21]: 43.9 µM | TGI [22]: 92.1 µM | TGI [23]: 34.6 µM | TGI [55]: 83.9 µM | TGI [56]: 73.3 µM | TGI [24]: 44.7 µM | TGI [25]: 59.4 µM | TGI [26]: > 100 µM | TGI [27]: 72.4 µM | TGI [28]: > 100 µM | TGI [29]: 37.7 µM | TGI [30]: 36.5 µM | TGI [31]: > 100 µM | TGI [32]: > 100 µM | TGI [57]: 54.2 µM | TGI [33]: > 100 µM | TGI [34]: 44.5 µM | TGI [35]: > 100 µM | TGI [36]: > 100 µM | TGI [38]: 55.2 µM | TGI [39]: 49.3 µM | TGI [40]: > 100 µM | TGI [41]: 75.8 µM | TGI [42]: 33.3 µM | TGI [58]: > 100 µM | TGI [43]: > 100 µM | TGI [44]: > 100 µM | TGI [45]: > 100 µM | TGI [46]: > 100 µM | TGI [47]: 40.9 µM | TGI [48]: 47.9 µM | TGI [49]: > 100 µM | TGI [50]: > 100 µM | TGI [51]: > 100 µM | TGI [59]: 34.1 µM | TGI [52]: 81.4 µM

O=C(CSc1nc2ccc(I)cc2c(=O)n1Cc1ccccc1)NNC(=O)c1ccccc1
TGI [1]: > 100 µM | TGI [2]: > 100 µM | TGI [3]: 75.4 µM | TGI [4]: > 100 µM | TGI [5]: 21 µM | TGI [6]: 68.8 µM | TGI [7]: 21.3 µM | TGI [8]: 33 µM | TGI [9]: 23.2 µM | TGI [10]: 45.9 µM | TGI [11]: 25.8 µM | TGI [12]: > 100 µM | TGI [53]: > 100 µM | TGI [54]: 15.5 µM | TGI [14]: 17.9 µM | TGI [15]: 40.5 µM | TGI [16]: 90.4 µM | TGI [17]: 17.5 µM | TGI [18]: 32.6 µM | TGI [19]: 15.5 µM | TGI [20]: 28 µM | TGI [21]: 20.7 µM | TGI [22]: 9.4 µM | TGI [23]: > 100 µM | TGI [55]: 63.3 µM | TGI [56]: 28.2 µM | TGI [24]: > 100 µM | TGI [25]: 22.7 µM | TGI [26]: 49 µM | TGI [27]: > 100 µM | TGI [28]: 12.3 µM | TGI [29]: > 100 µM | TGI [30]: > 100 µM | TGI [31]: > 100 µM | TGI [32]: 28.2 µM | TGI [57]: 23.7 µM | TGI [33]: 20.8 µM | TGI [34]: > 100 µM | TGI [35]: 27.4 µM | TGI [36]: 30.5 µM | TGI [37]: 25.7 µM | TGI [38]: 10.3 µM | TGI [39]: 24 µM | TGI [40]: 57.2 µM | TGI [41]: > 100 µM | TGI [42]: > 100 µM | TGI [58]: 23.5 µM | TGI [43]: 2.73 µM | TGI [44]: 30.7 µM | TGI [45]: > 100 µM | TGI [46]: > 100 µM | TGI [47]: 8.11 µM | TGI [48]: > 100 µM | TGI [49]: 36.6 µM | TGI [50]: 57.4 µM | TGI [51]: 44.9 µM | TGI [59]: 19.2 µM | TGI [52]: 24.7 µM

NC12CCC(CC1=O)C2 (stereo not given)
TGI [1]: > 100 µM | TGI [2]: > 100 µM | TGI [3]: > 100 µM | TGI [4]: > 100 µM | TGI [6]: > 100 µM | TGI [8]: > 100 µM | TGI [9]: > 100 µM | TGI [10]: > 100 µM | TGI [53]: > 100 µM | TGI [54]: > 100 µM | TGI [13]: > 100 µM | TGI [14]: > 100 µM | TGI [15]: > 100 µM | TGI [16]: > 100 µM | TGI [18]: > 100 µM | TGI [19]: > 100 µM | TGI [20]: > 100 µM | TGI [21]: > 100 µM | TGI [22]: > 100 µM | TGI [23]: > 100 µM | TGI [56]: > 100 µM | TGI [24]: > 100 µM | TGI [25]: > 100 µM | TGI [26]: > 100 µM | TGI [27]: > 100 µM | TGI [29]: > 100 µM | TGI [30]: > 100 µM | TGI [31]: > 100 µM | TGI [32]: > 100 µM | TGI [57]: > 100 µM | TGI [33]: > 100 µM | TGI [34]: > 100 µM | TGI [35]: > 100 µM | TGI [36]: > 100 µM | TGI [38]: > 100 µM | TGI [39]: > 100 µM | TGI [40]: > 100 µM | TGI [41]: > 100 µM | TGI [42]: > 100 µM | TGI [58]: > 100 µM | TGI [43]: > 100 µM | TGI [44]: > 100 µM | TGI [45]: > 100 µM | TGI [46]: > 100 µM | TGI [47]: > 100 µM | TGI [48]: > 100 µM | TGI [49]: > 100 µM | TGI [50]: > 100 µM | TGI [51]: > 100 µM | TGI [59]: > 100 µM | TGI [52]: > 100 µM
